Measured values as given in patent publication US20230167073A1 (Teijin Pharma Limited, priority 2020, published 2023).

These molecules were tested against T1, Human TRPC6 (Homo sapiens, UniProt Q9Y210) (assay: Evaluation of TRPC6 channel inhibitory activity (1), FLIPR Calcium 5 Assay Kit, OAG stimulation (Compound Nos. 1-1293)). Conditions: Human TRPC6 stably-expressing cells, OAG 30 μM, FLIPR Calcium 5 Assay Kit; read-out: Inhibitory activity (pIC50 class) (converted).
T1 construct: expressed in transfected cells
T1 sequence (Q9Y210 1-931): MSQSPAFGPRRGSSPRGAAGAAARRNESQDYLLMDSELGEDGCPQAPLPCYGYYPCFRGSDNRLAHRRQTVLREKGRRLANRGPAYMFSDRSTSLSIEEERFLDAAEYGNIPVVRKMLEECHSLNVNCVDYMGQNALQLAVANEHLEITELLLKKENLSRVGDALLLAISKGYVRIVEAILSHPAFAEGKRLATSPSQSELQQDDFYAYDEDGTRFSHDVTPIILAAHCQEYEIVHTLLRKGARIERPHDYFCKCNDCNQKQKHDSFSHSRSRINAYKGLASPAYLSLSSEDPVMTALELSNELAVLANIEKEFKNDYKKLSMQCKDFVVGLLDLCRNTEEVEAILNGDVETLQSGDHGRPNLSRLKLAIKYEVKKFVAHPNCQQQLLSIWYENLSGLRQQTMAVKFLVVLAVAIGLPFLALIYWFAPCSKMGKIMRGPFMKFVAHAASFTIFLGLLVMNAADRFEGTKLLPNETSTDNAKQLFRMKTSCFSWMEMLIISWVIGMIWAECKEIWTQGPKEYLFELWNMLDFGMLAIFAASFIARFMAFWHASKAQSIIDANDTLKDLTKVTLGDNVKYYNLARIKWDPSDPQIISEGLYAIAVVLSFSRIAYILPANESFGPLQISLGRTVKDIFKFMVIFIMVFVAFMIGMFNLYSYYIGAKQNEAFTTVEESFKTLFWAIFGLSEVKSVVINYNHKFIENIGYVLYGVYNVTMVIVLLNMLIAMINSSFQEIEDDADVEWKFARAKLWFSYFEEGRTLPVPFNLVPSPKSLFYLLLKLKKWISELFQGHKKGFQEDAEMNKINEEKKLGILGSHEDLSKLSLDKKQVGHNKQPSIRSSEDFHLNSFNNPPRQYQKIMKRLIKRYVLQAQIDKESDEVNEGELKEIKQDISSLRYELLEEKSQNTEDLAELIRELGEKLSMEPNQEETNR
Format: cell-based
In short: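 Readout is pIC50 from four-parameter logistic fitting of inhibition of the OAG-evoked (30 μM final) fluorescence calcium signal. Human TRPC6 stable cells are dye-loaded with probenecid, and compound is applied 20 min ahead of agonist.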

Question: With `Cn1nc(-c2cccc(F)c2)cc1Oc1cc(C#N)ccc1-c1ncc([C@H](O)CN)cn1` (stereo in doubt) [compound 404, 4-[5-(2-amino-1-hydroxyethyl)pyrimidin-2-yl]-3-[5-(3-fluorophenyl)-2-methylpyrazol-3 yl]oxybenzonitrile] as the molecule, how does the IC50 read?
Answer: < 0.01 µM

Question: For `CC(C)n1nc(C2CC2)cc1Oc1cc(C#N)ccc1-c1ncc(CCN)cn1` [compound 380, 4-[5-(2-aminoethyl)pyrimidin-2-yl]-3-(5-cyclopropyl-2-propan-2-ylpyrazol-3-yl)oxybenzonitrile], which IC50 is on record?
Answer: 0.01 to 1 µM

Question: `Cc1cc(N2CCOCC2)cc(Oc2cc(C#N)ccc2-c2ccc(CCN)cc2)n1` [Compound 128, 4-[4-(2-aminoethyl)phenyl]-3-(6-methyl-4-morpholin-4-ylpyridin-2-yl)oxybenzonitrile] was tested. Which IC50 did it give?
Answer: > 1 µM

Question: For `Cn1nc(N2CCCCC2)cc1Cc1cc(C#N)ccc1-c1ncc(CCN)cn1` [compound 1218, 4-[5-(2-aminoethyl)pyrimidin-2-yl]-3-[(2-methyl-5-piperidin-1-ylpyrazol-3-yl)methyl]benzonitrile], which IC50 is on record?
Answer: < 0.01 µM

Question: Which IC50 does the source give for `Cn1nc(-c2ccccn2)cc1Cc1cc(C#N)ccc1-c1ncc(CCN)cn1` [compound 1214, 4-[5-(2-aminoethyl)pyrimidin-2-yl]-3-[(2-methyl-5-pyridin-2-ylpyrazol-3-yl)methyl]benzonitrile] here?
Answer: < 0.01 µM

Question: `Cn1nc(-c2ccccc2)cc1Oc1cc(C#N)ccc1-c1ccc(CCN)cc1` [Compound 115, 4-[4-(2-aminoethyl)phenyl]-3-(2-methyl-5-phenylpyrazol-3-yl)oxybenzonitrile] was tested. Which IC50 did it give?
Answer: < 0.01 µM

Question: Which IC50 does the source give for `Cn1nc(N2CCOCC2)cc1Oc1cc(C#N)ccc1-c1ccc(CN)cn1` [compound 773, 4-[5-(aminomethyl)pyridin-2-yl]-3-(2-methyl-5-morpholin-4-ylpyrazol-3-yl)oxybenzonitrile] here?
Answer: < 0.01 µM

Question: `Cn1nc(-c2ccccn2)cc1Oc1cc(C#N)ccc1-c1ccc(CN)n2cnnc12` [compound 589, 4-[5-(aminomethyl)-[1,2,4]triazolo[4,3-a]pyridin-8-yl]-3-(2-methyl-5-pyridin-2-ylpyrazol-3-yl)oxybenzonitrile] was tested. Which IC50 did it give?
Answer: 0.01 to 1 µM

Question: `CCN(CC)c1cc(Oc2cc(C#N)ccc2-c2ccc([C@H](F)CN)cn2)n(C)n1` [compound 915, 4-[5-[(1S)-2-amino-1-fluoroethyl]pyridin-2-yl]-3-[5-(diethylamino)-2-methylpyrazol-3-yl]oxybenzonitrile] was tested. Which IC50 did it give?
Answer: < 0.01 µM

Question: With `Cc1cc(Oc2cc(C#N)ccc2-c2ncc([C@@H](F)CN)cn2)cc(N2CCOCC2)n1` [compound 876, 4-[5-[(1R)-2-amino-1-fluoroethyl]pyrimidin-2-yl]-3-(2-methyl-6-morpholin-4-ylpyridin-4-yl)oxybenzonitrile] as the molecule, how does the IC50 read?
Answer: < 0.01 µM

Question: How did the IC50 turn out when `Cc1cc(Oc2cc(C#N)ccc2-n2cc(C(O)CN)cn2)cc(-c2ccccc2)n1` (stereo not shown) [Compound 226, 4-[4-(2-amino-1-hydroxyethyl)pyrazol-1-yl]-3-(2-methyl-6-phenylpyridin-4-yl)oxybenzonitrile] was run?
Answer: < 0.01 µM

Question: `Cc1nc(Oc2cc(C#N)ccc2-c2ccc(CCN)nc2)cc(-c2ccc(F)cc2)n1` [Compound 190, 4-[6-(2-aminoethyl)pyridin-3-yl]-3-[6-(4-fluorophenyl)-2-methylpyrimidin-4-yl]oxybenzonitrile] was tested. Which IC50 did it give?
Answer: 0.01 to 1 µM

Question: Which IC50 does the source give for `Cn1nc(-c2ccc(Cl)cc2)cc1Oc1cc(C#N)ccc1-c1ccc([C@@H](O)CN)cn1` [compound 377, 4-[5-[(1R)-2-amino-1-hydroxyethyl]pyridin-2-yl]-3-[5-(4-chlorophenyl)-2-methylpyrazol-3-yl]oxybenzonitrile] here?
Answer: 0.01 to 1 µM

Question: For `Cc1nc(Oc2cc(C#N)ccc2-c2ccc(CN)cn2)cc(N2CCCC2)n1` [compound 657, 4-[5-(aminomethyl)pyridin-2-yl]-3-(2-methyl-6-pyrrolidin-1-ylpyrimidin-4-yl)oxybenzonitrile], which IC50 is on record?
Answer: < 0.01 µM

Question: How did the IC50 turn out when `Cn1nc(N2CCCC2=O)cc1Oc1cc(C#N)ccc1-c1ccc(CCN)cn1` [compound 755, 4-[5-(2-aminoethyl)pyridin-2-yl]-3-[2-methyl-5-(2-oxopyrrolidin-1-yl)pyrazol-3-yl]oxybenzonitrile] was run?
Answer: 0.01 to 1 µM

Question: For `Cc1nc(NCC2CCOCC2)cc(Oc2cc(C#N)ccc2-c2ncc(CN)cn2)n1` [compound 636, 4-[5-(aminomethyl)pyrimidin-2-yl]-3-[2-methyl-6-(oxan-4-ylmethylamino)pyrimidin-4-yl]oxybenzonitrile], which IC50 is on record?
Answer: > 1 µM

Question: Which IC50 does the source give for `Cc1cc(Oc2cc(C#N)ccc2-c2ccc([C@H](O)CN)cn2)cc(N2CCCC2)n1` [compound 498, 4-[5-[(1S)-2-amino-1-hydroxyethyl]pyridin-2-yl]-3-(2-methyl-6-pyrrolidin-1-ylpyridin-4-yl)oxybenzonitrile] here?
Answer: < 0.01 µM

Question: For `Cn1nc(-c2ccccn2)cc1Oc1cc(C#N)ccc1-c1ccc(C(O)CN)cc1` (stereo not shown) [Compound 161, 4-[4-(2-amino-1-hydroxyethyl)phenyl]-3-(2-methyl-5-pyridin-2-ylpyrazol-3-yl)oxybenzonitrile], which IC50 is on record?
Answer: < 0.01 µM

Question: How did the IC50 turn out when `Cn1nc(C2CC2)cc1Oc1cc(C#N)ccc1-c1ccc(CN)nc1` [compound 331, 4-[6-(aminomethyl)pyridin-3-yl]-3-(5-cyclopropyl-2-methylpyrazol-3-yl)oxybenzonitrile] was run?
Answer: 0.01 to 1 µM

Question: `Cn1nc(C2CC2)cc1Oc1cc(C#N)ccc1-c1cccn2c(C3CNC3)nnc12` [compound 571, 4-[3-(azetidin-3-yl)-[1,2,4]triazolo[4,3-a]pyridin-8-yl]-3-(5-cyclopropyl-2-methylpyrazol-3-yl)oxybenzonitrile] was tested. Which IC50 did it give?
Answer: > 1 µM

Question: Which IC50 does the source give for `COCCCCN(C)c1cc(Oc2cc(C#N)ccc2-c2ncc(CCN)cn2)n(C)n1` [compound 838, 4-[5-(2-aminoethyl)pyrimidin-2-yl]-3-[5-[4-methoxybutyl(methyl)amino]-2-methylpyrazol-3-yl]oxybenzonitrile] here?
Answer: 0.01 to 1 µM

Question: For `C#CCOc1cc(Oc2cc(C#N)ccc2-c2ncc(CCN)cn2)nc(C)n1` [compound 926, 4-[5-(2-aminoethyl)pyrimidin-2-yl]-3-(2-methyl-6-prop-2-ynoxypyrimidin-4-yl)oxybenzonitrile], which IC50 is on record?
Answer: > 1 µM

Question: How did the IC50 turn out when `Cc1cccc(-c2cn(Cc3cc(C#N)ccc3-c3ccc(CCN)cn3)cn2)c1` [compound 1148, 4-[5-(2-aminoethyl)pyridin-2-yl]-3-[[4-(3-methylphenyl)imidazol-1-yl]methyl]benzonitrile] was run?
Answer: < 0.01 µM

Question: For `CCN(CC)c1cc(Oc2cc(F)ccc2-c2ncc(CN)cn2)n(C)n1` [compound 992, 5-[2-[5-(aminomethyl)pyrimidin-2-yl]-5-fluorophenoxy]-N,N-diethyl-1-methylpyrazole-3-amine], which IC50 is on record?
Answer: < 0.01 µM

Question: `CN(C)c1cc(Oc2cc(F)ccc2-c2ncc(CN)cn2)n(C)n1` [compound 997, 5-[2-[5-(aminomethyl)pyrimidin-2-yl]-5-fluorophenoxy]-N,N,1 trimethylpyrazole-3-amine] was tested. Which IC50 did it give?
Answer: 0.01 to 1 µM

Question: `N#Cc1ccc(-c2ncc(CN)cn2)c(C(=O)c2cnn(CC3CC3)c2)c1` [compound 1047, 4-[5-(aminomethyl)pyrimidin-2-yl]-3-[1-(cyclopropylmethyl)pyrazole-4-carbonyl]benzonitrile] was tested. Which IC50 did it give?
Answer: < 0.01 µM

Question: How did the IC50 turn out when `Cc1nc(Oc2cc(C#N)ccc2-c2ccc(CCN)cc2)cc(-c2cccs2)n1` [Compound 33, 4-[4-(2-aminoethyl)phenyl]-3-(2-methyl-6-thiophen-2-ylpyrimidin-4-yl)oxybenzonitrile] was run?
Answer: < 0.01 µM

Question: `COCCOc1cc(Oc2cc(C#N)ccc2-c2ncc(CCN)cn2)nc(C)n1` [compound 890, 4-[5-(2-aminoethyl)pyrimidin-2-yl]-3-[6-(2-methoxyethoxy)-2-methylpyrimidin-4-yl]oxybenzonitrile] was tested. Which IC50 did it give?
Answer: 0.01 to 1 µM

Question: For `Cc1cc(Oc2cc(C#N)ccc2-c2ccc(CN3CCOCC3)cn2)cc(N2CCOCC2)n1` [compound 425, 3-(2-methyl-6-morpholin-4-ylpyridin-4-yl)oxy-4-[5-(morpholin-4-ylmethyl)pyridin-2-yl]benzonitrile], which IC50 is on record?
Answer: > 1 µM

Question: Which IC50 does the source give for `Cc1nc(CN2CCC(F)CC2)cn1Cc1cc(C#N)ccc1-c1ncc(CCN)cn1` [compound 1177, 4-[5-(2-aminoethyl)pyrimidin-2-yl]-3-[[4-[(4-fluoropiperidin-1-yl)methyl]-2-methylimidazol-1-yl]methyl]benzonitrile] here?
Answer: > 1 µM

Question: With `Cn1nc(-c2ccccn2)cc1Oc1cc(C#N)ccc1-c1cc(CN)ccn1` [compound 642, 4-[4-(aminomethyl)pyridin-2-yl]-3-(2-methyl-5-pyridin-2-ylpyrazol-3-yl)oxybenzonitrile] as the molecule, how does the IC50 read?
Answer: < 0.01 µM
